# Key:
# Assay in all cases: Broth microdilution MIC in CAMHB
# Assay type in all cases: cell-based
# A. baumannii ATCC 19606 = settings: Acinetobacter baumannii, ATCC19606; MHB; read-out: Minimum Inhibitory Concentration, A. baumannii ATCC 19606
# How it was run: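 Colonies from cation-adjusted Mueller Hinton agar are grown in broth (3-5 h, 37° C), adjusted by OD600, and added at 2-8×10^5 CFU/mL to 2-fold compound dilutions. After 16-20 h at 37° C, the lowest concentration without growth is taken as MIC.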
# P. aeruginosa ATCC 27853 = settings: Pseudomonas aeruginosa, ATCC27853; MHB; read-out: Minimum Inhibitory Concentration, P. aeruginosa ATCC 27853
# How it was run: (§1)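 CLSI microdilution; CAMHB; inoculum 2-8×10^5 CFU/mL from 3-5 h 37° C culture; 2-fold compound series; 16-20 h, 37° C; MIC = lowest well without visible growth.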
# E. coli 901C = settings: Escherichia coli; E. coli 901C (hyper-permeable); MHB; read-out: Minimum Inhibitory Concentration, E. coli 901C
# How it was run: as §1
# [1] = test system: K. pneumoniae UMM producing SHV-5 and KPC-2; settings: Klebsiella pneumoniae, read-out: Minimum Inhibitory Concentration, K. pneumoniae UMM
# How it was run: as §1
# E. coli ATCC 25922 = settings: Escherichia coli, ATCC25922; E. coli ATCC 25922; MHB; read-out: Minimum Inhibitory Concentration, E. coli 25922
# How it was run: as §1
# [2] = test system: P. aeruginosa (ΔmexAB-oprM); settings: Pseudomonas aeruginosa, read-out: Minimum Inhibitory Concentration, P. aeruginosa ΔmexAB-OprM
# How it was run: as §1
# [3] = test system: K. pneumoniae 848844 producing SHV-11 and KPC-2; settings: Klebsiella pneumoniae, read-out: Minimum Inhibitory Concentration, K. pneumoniae 848844
# How it was run: as §1
# P. aeruginosa ATCC 35151 = settings: Pseudomonas aeruginosa, ATCC35151; MHB; hyper-permeable strain; read-out: Minimum Inhibitory Concentration, P. aeruginosa ATCC 35151
# How it was run: as §1
# [4] = test system: K. pneumoniae SI-117 producing VIM-1; settings: Klebsiella pneumoniae, read-out: Minimum Inhibitory Concentration, K. pneumoniae SI-117
# How it was run: as §1
# E. coli D22 = settings: Escherichia coli; E. coli D22 (hyper-permeable); MHB; read-out: Minimum Inhibitory Concentration, E. coli D22
# How it was run: as §1
# E. coli AG100A = settings: Escherichia coli, read-out: Minimum Inhibitory Concentration, E. coli AG100A
# How it was run: as §1
# E. coli AG100 = settings: Escherichia coli; E. coli AG100 (wild-type parent); MHB; read-out: Minimum Inhibitory Concentration, E. coli AG100
# How it was run: as §1
SMILES,MIC (A. baumannii ATCC 19606),MIC (P. aeruginosa ATCC 27853),MIC (E. coli 901C),MIC [1],MIC (E. coli ATCC 25922),MIC [2],MIC [3],MIC (P. aeruginosa ATCC 35151),MIC [4],MIC (E. coli D22),MIC (E. coli AG100A),MIC (E. coli AG100)
"NCCN1CCN(C(=O)NC(C(=O)N[C@H]2Cc3cccc(C(=O)O)c3OB2O)c2cc(F)c(O)c(Cl)c2)C(=O)C1=O (stereo partly drawn) [Example 163, (3R)-3-(2-(4-(2-aminoethyl)-2,3-dioxopiperazine-1-carboxamido)-2-(3-chloro-5-fluoro-4-hydroxyphenyl)acetamido)-2-hydroxy-3,4-dihydro-2H-benzo[e][1,2]oxaborinine-8-carboxylic acid]",> 128 µg/mL,32 to 64 µg/mL,0.5 to 1 µg/mL,32 to 64 µg/mL,32 to 64 µg/mL,2 to 4 µg/mL,> 128 µg/mL,< 0.25 µg/mL,> 128 µg/mL,8 to 16 µg/mL,2 to 4 µg/mL,32 to 64 µg/mL
"NCCN1CCN(C(=O)NC(C(=O)N[C@H]2Cc3cccc(C(=O)O)c3OB2O)c2cc(F)c(O)cc2Cl)C(=O)C1=O (stereo partly drawn) [Example 109, (3R)-3-(2-(4-(2-aminoethyl)-2,3-dioxopiperazine-1-carboxamido)-2-(2-chloro-5-fluoro-4-hydroxyphenyl)acetamido)-2-hydroxy-3,4-dihydro-2H-benzo[e][1,2]oxaborinine-8-carboxylic acid]",> 128 µg/mL,> 128 µg/mL,2 to 4 µg/mL,32 to 64 µg/mL,32 to 64 µg/mL,8 to 16 µg/mL,> 128 µg/mL,2 to 4 µg/mL,> 128 µg/mL,8 to 16 µg/mL,8 to 16 µg/mL,> 128 µg/mL
"NCCN1CCN(C(=O)N[C@H](C(=O)N[C@H]2Cc3ccc(F)c(C(=O)O)c3OB2O)c2c(F)cc(O)cc2F)C(=O)C1=O (single isomer, unassigned) [Example 128]",> 128 µg/mL,> 128 µg/mL,8 to 16 µg/mL,32 to 64 µg/mL,32 to 64 µg/mL,32 to 64 µg/mL,> 128 µg/mL,2 to 4 µg/mL,> 128 µg/mL,8 to 16 µg/mL,32 to 64 µg/mL,32 to 64 µg/mL
"CCN1CCN(C(=O)NC(C(=O)N[C@H]2Cc3cccc(C(=O)O)c3OB2O)c2cccc(CN)c2)C(=O)C1=O (stereo partly drawn) [Example 108, (3R)-3-(2-(3-(aminomethyl)phenyl)-2-(4-ethyl-2,3-dioxopiperazine-1-carboxamido)acetamido)-2-hydroxy-3,4-dihydro-2H-benzo[e][1,2]oxaborinine-8-carboxylic acid]",> 128 µg/mL,> 128 µg/mL,2 to 4 µg/mL,32 to 64 µg/mL,8 to 16 µg/mL,32 to 64 µg/mL,> 128 µg/mL,8 to 16 µg/mL,32 to 64 µg/mL,8 to 16 µg/mL,2 to 4 µg/mL,32 to 64 µg/mL
"NCCN1CCN(C(=O)N[C@H](C(=O)N[C@H]2Cc3cccc(C(=O)O)c3OB2O)c2cc(F)c(O)c(F)c2F)C(=O)C1=O (single isomer, unassigned) [Example 167]",> 128 µg/mL,> 128 µg/mL,2 to 4 µg/mL,32 to 64 µg/mL,32 to 64 µg/mL,8 to 16 µg/mL,> 128 µg/mL,0.5 to 1 µg/mL,> 128 µg/mL,8 to 16 µg/mL,8 to 16 µg/mL,32 to 64 µg/mL
"CS(=O)(=O)N1CCN(C(=O)N[C@H](C(=O)N[C@H]2Cc3cccc(C(=O)O)c3OB2O)c2c(F)cc(O)cc2F)C1=O (single isomer, unassigned) [Example 136]",> 128 µg/mL,> 128 µg/mL,0.5 to 1 µg/mL,> 128 µg/mL,> 128 µg/mL,> 128 µg/mL,> 128 µg/mL,2 to 4 µg/mL,> 128 µg/mL,8 to 16 µg/mL,8 to 16 µg/mL,> 128 µg/mL
"NCCN1CCN(C(=O)N[C@@H](C(=O)N[C@H]2Cc3ccc(F)c(C(=O)O)c3OB2O)c2c(F)cc(O)cc2F)C(=O)C1=O (single isomer, unassigned) [Example 127]",> 128 µg/mL,> 128 µg/mL,2 to 4 µg/mL,8 to 16 µg/mL,8 to 16 µg/mL,8 to 16 µg/mL,32 to 64 µg/mL,0.5 to 1 µg/mL,32 to 64 µg/mL,2 to 4 µg/mL,8 to 16 µg/mL,8 to 16 µg/mL

# — US20230114728A1 (Venatorx Pharmaceuticals, Inc., priority 2019, published 2023)
